Data: US12472225B2 (priority 2019, dated 2025)
Where a SMILES comes first, the peptide text is derived from it. Bridges are numbered along the chain shown (N, C = ends). [ ]: non-standard residue; d: D form. The star is where a group is joined. Octanoyl = CCCCCCCC(=O)*; Dab = NCC[C@H](N)C(=O)O; Abu = CC[C@H](N)C(=O)O

Tests used:
[1] = molecular target: T1, binding of Shiga toxin 2 to human neutrophils expressing the TLR4 (Escherichia phage 933W, UniProt P09385); assay: cell-based; type: cell-based
Shiga toxin 2 = Shiga toxin 2 (Escherichia phage 933W, UniProt P09385); assay: biochemical; type: binding
[2] = system: Raji cells (Burkitt lymphoma); type: cell-based, human
[3] = system: neutrophil/platelet aggregates in human blood; type: cell-based
[4] = system: monocyte/platelet aggregates in human blood; type: cell-based
[5] = molecular target: T1, binding of Shiga toxin 2 to human neutrophils expressing the TLR4; conditions: cited from earlier work
[6] = system: Raji cells (Burkitt lymphoma); conditions: cited from earlier work
human renal tubule cells = conditions: cited from earlier work

T1 sequence (P09385 whole entry, looked up): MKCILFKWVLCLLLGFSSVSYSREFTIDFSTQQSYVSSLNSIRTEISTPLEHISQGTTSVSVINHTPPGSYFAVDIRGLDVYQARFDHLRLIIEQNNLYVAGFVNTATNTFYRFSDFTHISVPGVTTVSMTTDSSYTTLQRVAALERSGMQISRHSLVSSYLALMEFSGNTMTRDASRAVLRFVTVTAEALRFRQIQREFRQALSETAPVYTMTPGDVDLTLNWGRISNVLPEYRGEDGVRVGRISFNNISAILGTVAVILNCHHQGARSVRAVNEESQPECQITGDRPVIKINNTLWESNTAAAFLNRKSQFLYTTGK
Shiga toxin 2, sequence (P09385 whole entry, looked up): as above

CCCCCCCC(=O)N[C@@H](CCN)C(=O)N[C@H](C(=O)N[C@@H](C(=O)N[C@H]1CCNC(=O)[C@H]([C@@H](C)O)NC(=O)[C@H](CCN)NC(=O)[C@H](CC)NC(=O)[C@H](CC(C)C)NC(=O)[C@@H](Cc2ccccc2)NC(=O)[C@H](CCN)NC1=O)[C@H](C)O)[C@@H](C)O [NAB815, OA-Dab-Thr-DThr-cy[Dab-Dab-DPhe-Leu-Abu-Dab-Thr-]] (Octanoyl-[Dab]T[dT][Dab][Dab][dF]L[Abu][Dab]T; lactam 4-C)
inhibition of the binding of Shiga toxin 2 to the neutrophil (in words) [1]: strong inhibitor | IC50 ([1]; IC50 (concentration determining a 50% inhibition) of binding of Shiga toxin 2 to neutrophils): 48.5 nM | IC50 ([1]; concentration inhibiting binding of Shiga toxin 2 to neutrophils by 50%): 43 nM | Kd (Shiga toxin 2): 5 nM | maximum reduction of the fluorescence emission (Shiga toxin 2): approximately 10% | protection of Raji cells from Shiga toxin 2 intoxication (protein synthesis) [2]: no protective effect | inhibition of formation of neutrophil/platelet aggregates [3]: more than 70% | inhibition of formation of monocyte/platelet aggregates [4]: more than 70%

Ac-Thr-DSer-cy[Dab-Dab-DPhe-Leu-Dab-Dab-Thr-] [NAB741, reference compound]
inhibition of the binding of Shiga toxin 2 to the neutrophil (in words) [1]: scarcely effective

OA-Thr-Abu-cy[Dab-Dab-DPhe-Leu-Dab-Dab-Thr-] [NAB7061, reference compound]
inhibition of the binding of Shiga toxin 2 to the neutrophil (in words) [1]: scarcely effective

MOA/MHA-Dab-Thr-Dab-cy[Dab-Dab-DPhe-Leu-Dab-Dab-Thr-] [polymyxin B]
effect on formation of neutrophil/platelet aggregates (in words) [3]: not effective | effect on formation of monocyte/platelet aggregates (in words) [4]: not effective | IC50 of binding of Shiga toxin 2 to neutrophils [5]: 3.5 µg/mL | protection of Raji cells from Shiga toxin 2 intoxication [6]: no protective effect | cytotoxicity IC50 (human renal tubule cells): 18 µg/mL
